Experimental data: article PMC8571282 (Nature Communications, 2021)
Several values for one entry are separate records, joined by “and”; a condition that tells them apart may be missing. Equal entries are not always repeated. Where two headings read alike, the source gives them in different places.

Key:
[1] = Cytotoxicity assay (PrestoBlue), HEp-2; conditions: human, HEp-2 cells
[2] = system: SARS-CoV-2 gamma isolate (BZ/2021, lineage P.1); assay: microbe, parasite or virus in culture; type: cell-based; conditions: Severe acute respiratory syndrome coronavirus 2
[3] = system: SARS-CoV-2-Nluc (WA1/2020-nano luciferase); assay: microbe, parasite or virus in culture; type: cell-based; conditions: for A549-hACE2 SARS-CoV-2 Nluc (EC50 determination), normalized signal: replicate values of the experiments
[4] = Cytotoxicity assay (PrestoBlue), HCT-8; conditions: human, HCT-8 cells
[5] = system: VeroE6 cells; assay: Cytotoxicity assay (PrestoBlue), VeroE6; conditions: 72 h
[6] = Cytotoxicity assay (PrestoBlue), VeroE6; conditions: African green monkey, VeroE6 cells
[7] = in vitro; conditions: human, % cell viability, HEp-2, 33.333 µM, 72 h
[8] = parameters: method as in Mackman et al 2021 (JMC 2021, 64(8), 5001-5017); conditions: cynomolgus macaques, ref Mackman et al 2021 (JMC 2021, 64(8), 5001-5017); cited from earlier work
[9] = in vitro; conditions: human, % cell viability, 72 h
[10] = Cytotoxicity assay (PrestoBlue), “M6” HAE; conditions: human
[11] = system: “M6” primary HAE cells; assay: Cytotoxicity assay (PrestoBlue), “M6” HAE; conditions: M6 HAE, 72 h
[12] = system: SARS-CoV-2 BZ/2021 (γ, lineage P.1); assay: microbe, parasite or virus in culture; type: cell-based; conditions: Severe acute respiratory syndrome coronavirus 2, Vero C1008; BZ/2021, VeroE6, mean n=3
[13] = Cytotoxicity assay (PrestoBlue), “F2” HAE; conditions: human
[14] = system: SARS-CoV-2 (WA1/2020 and VOC α, β, γ); assay: microbe, parasite or virus in culture; type: cell-based; conditions: Severe acute respiratory syndrome coronavirus 2, Vero C1008; read-out: Half-maximal effective concentrations (EC50), range
[15] = system: SARS-CoV-2 CA/2020 (α, lineage B.1.1.7); assay: microbe, parasite or virus in culture; type: cell-based
[16] = Cytotoxicity assay (PrestoBlue), “F3” HAE; conditions: human
[17] = system: “F3” primary HAE cells; assay: Cytotoxicity assay (PrestoBlue), “F3” HAE; conditions: 72 h; for % cell viability: F3 HAE
[18] = system: well-differentiated primary human airway epithelium cultures; type: cell-based
[19] = system: SARS-CoV-2 WA1/2020 (lineage A); assay: microbe, parasite or virus in culture; type: cell-based; conditions: for Virus yield reduction: vehicle = 0
[20] = Cytotoxicity assay (PrestoBlue), “M2” HAE; conditions: human, % cell viability, M2 HAE, 72 h
[21] = Single-dose plasma pharmacokinetics in ferrets; conditions: ferret; for plasma concentration of GS-621763: GS-621763 PO 30 mg/kg, 30 mg/kg
[22] = parameters: method as in Mackman et al 2021 (JMC 2021, 64(8), 5001-5017); conditions: rats, ref Mackman et al 2021 (JMC 2021, 64(8), 5001-5017); cited from earlier work
[23] = in vitro; conditions: human
[24] = Cytotoxicity assay (PrestoBlue), BHK-21; conditions: hamster, BHK-21 cells
[25] = cited from earlier work

CC(C)C(=O)OCC1OC(C#N)(c2ccc3c(N)ncnn23)C(OC(=O)C(C)C)C1OC(=O)C(C)C (centres unmarked) [GS-621763]
viability at 72 h, 0.046 µM ([1]; % cell viability, HEp-2, 0.046 µM, 72 h): 53% | viability at 72 h, 1.235 µM ([1]; % cell viability, HEp-2, 1.235 µM, 72 h): 95% | viability at 72 h, 3.704 µM ([1]; % cell viability, HEp-2, 3.704 µM, 72 h): 104% | viability at 72 h, 33.333 µM ([1]; % cell viability, HEp-2, 33.333 µM, 72 h): 111% | CC50 at 72 h ([1]; CC50, HEp-2, 72 h): 79.4 µM | EC50 [2]: 3.01 µM | A549-hACE2 SARS-CoV-2 Nluc (EC50 determination), normalized signal ([3]; Conc 0.023 µM): 100.31 and 91.27 and 105.35 and 111.17 and 106.25 and 121.34 and 128.97 and 56.85 | A549-hACE2 SARS-CoV-2 Nluc (EC50 determination), normalized signal ([3]; Conc 0.069 µM): 81.07 and 111.32 and 107.14 and 109.98 and 64.03 and 99.75 and 127.29 and 97.36 | A549-hACE2 SARS-CoV-2 Nluc (EC50 determination), normalized signal ([3]; Conc 0.206 µM): 99.03 and 101.58 and 96.21 and 106.69 and 74.78 and 94.61 and 130.86 and 135.24 | A549-hACE2 SARS-CoV-2 Nluc (EC50 determination), normalized signal ([3]; Conc 0.617 µM): 93.09 and 77.54 and 84.50 and 82.94 and 7.92 and 26.38 and 11.95 and 19.80 | A549-hACE2 SARS-CoV-2 Nluc (EC50 determination), normalized signal ([3]; Conc 1.852 µM): 11.60 and 8.15 and 9.31 and 12.89 and 0.89 and 0.94 and 1.04 and 0.76 | A549-hACE2 SARS-CoV-2 Nluc (EC50 determination), normalized signal ([3]; Conc 5.556 µM): 0.61 and 1.05 and 0.64 and 0.93 and 0.44 (2×) and 0.49 and 0.36 | A549-hACE2 SARS-CoV-2 Nluc (EC50 determination), normalized signal ([3]; Conc 16.667 µM): 0.46 and 0.65 and 0.58 and 0.40 and 0.32 (2×) and 0.31 and 0.28 | A549-hACE2 SARS-CoV-2 Nluc (EC50 determination), normalized signal ([3]; Conc 50.000 µM): 0.15 (3×) and 0.14 and 0.29 (2×) and 0.24 and 0.26 | EC50 ([3]; Severe acute respiratory syndrome coronavirus 2, WA1/2020-nano luciferase, A549-ACE2, mean ± SD): 0.72 µM | viability at 72 h, 0.046 µM ([4]; % cell viability, HCT-8, 0.046 µM, 72 h): 78% | viability at 72 h, 3.704 µM ([4]; % cell viability, HCT-8, 3.704 µM, 72 h): 104% | viability at 72 h, 33.333 µM ([4]; % cell viability, HCT-8, 33.333 µM, 72 h): 99% | viability at 72 h, 100 µM ([4]; % cell viability, HCT-8, 100 µM, 72 h): 2% | CC50 at 72 h ([4]; CC50, HCT-8, 72 h): 74.6 µM | % cell viability ([5]; VeroE6, 0.046 µM, 0.046 µM): 61% and 56% | % cell viability ([5]; VeroE6, 1.235 µM, 1.235 µM): 82% | % cell viability ([5]; VeroE6, 3.704 µM, 3.704 µM): 97% | % cell viability ([5]; VeroE6, 33.333 µM, 33.333 µM): 103% | % cell viability ([5]; VeroE6, 100 µM, 100 µM): -4% and -6% and -7% | CC50 at 72 h [6]: > 100 µM | viability at 72 h, 0.046 µM ([6]; % cell viability, VeroE6, 0.046 µM, 72 h): 62% | viability at 72 h, 1.235 µM ([6]; % cell viability, VeroE6, 1.235 µM, 72 h): 90% | viability at 72 h, 3.704 µM ([6]; % cell viability, VeroE6, 3.704 µM, 72 h): 95% | viability at 72 h, 33.333 µM ([6]; % cell viability, VeroE6, 33.333 µM, 72 h): 105% | viability at 72 h, 33.333 µM [7]: 112% | oral F [8]: 28% | viability at 72 h, 1.235 µM ([9]; HCT-8, 1.235 µM): 115% | viability at 72 h, 3.704 µM ([9]; HCT-8, 3.704 µM): 114% | viability at 72 h, 33.333 µM ([9]; HCT-8, 33.333 µM): 106% | CC50 at 72 h [10]: 92.3 µM | viability at 72 h, 100 µM ([10]; % cell viability, M6 HAE, 100 µM, 72 h): 42% | viability at 72 h, 1.235 µM ([10]; male, % cell viability, M6 HAE, 1.235 µM, 72 h): 97% | viability at 72 h, 33.333 µM ([10]; male, % cell viability, M6 HAE, 33.333 µM, 72 h): 94% | % cell viability ([11]; 1.235 µM): 96% | % cell viability ([11]; 3.704 µM): 70% and 86% | % cell viability ([11]; 33.333 µM): 99% | % cell viability ([11]; 100 µM): 46% and 45% | EC50 [12]: 0.22 µM | viability at 72 h, 1.235 µM ([13]; female, % cell viability, F2 HAE, 1.235 µM): 100% | viability at 72 h, 3.704 µM ([13]; female, % cell viability, F2 HAE, 3.704 µM): 117% | viability at 72 h, 33.333 µM ([13]; female, % cell viability, F2 HAE, 33.333 µM): 82% | viability at 72 h, 0.046 µM ([13]; female, “F2” primary human airway epithelial (HAE) cells, % cell viability, F2 HAE, 0.046 µM): 86% | viability at 72 h, 100 µM ([13]; % cell viability, F2 HAE, 100 µM): 1% | CC50 at 72 h ([13]; CC50, “F2” HAE): 43.8 µM | EC50 [14]: 0.11 to 0.73 µM | reduction in titer in vitro (to the limit of detection) [15]: ~ 1 log | EC50 ([15]; Severe acute respiratory syndrome coronavirus 2, Vero C1008, CA/2020, VeroE6, mean n=3): 0.21 µM | viability at 72 h, 1.235 µM ([16]; female, % cell viability, F3 HAE, 1.235 µM): 121% | viability at 72 h, 3.704 µM ([16]; female, % cell viability, F3 HAE, 3.704 µM): 111% | viability at 72 h, 33.333 µM ([16]; female, % cell viability, F3 HAE, 33.333 µM): 81% | viability at 72 h, 0.046 µM ([16]; female, “F3” primary human airway epithelial (HAE) cells, % cell viability, F3 HAE, 0.046 µM): 83% | viability at 72 h, 100 µM ([16]; % cell viability, F3 HAE, 100 µM): 1% | CC50 at 72 h ([16]; CC50, “F3” HAE): 43.8 µM | % cell viability ([17]; 0.046 µM): 79% | % cell viability ([17]; 3.704 µM): 115% | % cell viability ([17]; 33.333 µM): 86% | CC50 ([17]; “F3” HAE): 43.8 µM | basolateral drug concentration at which epithelium integrity (TEER) was fully preserved [18]: ≥ 3 µM | EC50 ([19]; Severe acute respiratory syndrome coronavirus 2, Vero C1008, WA1/2020, VeroE6, mean n=3): 0.73 µM | Virus yield reduction ([19]; WA1/2020, VeroE6, 0.617284 µM): -0.1154 | Virus yield reduction ([19]; WA1/2020, VeroE6, 1.85185 µM): -1.903 | viability at 72 h, 100 µM ([20]; 100 µM): 0% | viability at 72 h, 1.235 µM ([20]; male, 1.235 µM): 107% | viability at 72 h, 3.704 µM ([20]; male, 3.704 µM): 117% | viability at 72 h, 33.333 µM ([20]; male, 33.333 µM): 89% | oral bioavailability (in words) [21]: excellent oral bioavailability | plasma concentration of GS-621763 ([21]; 0.25 h): 9.27 and 11.5 and 13.7 | plasma concentration of GS-621763 ([21]; 1 h): 5.98 and 3.18 and 4.36 | plasma GS-621763 (intact prodrug) transiently observed ([21]; GS-621763 p.o. 30 mg/kg, first two hours): approximately 10 nM | GS-441524 in blood relative to intact prodrug ([21]; after oral administration of GS-621763): more than three orders of magnitude higher | oral F [22]: 57% | CC50 at 48 h [23]: > 47 µM | CC50 at 72 h [24]: > 100 µM | viability at 72 h, 0.046 µM ([24]; % cell viability, BHK-21, 0.046 µM, 72 h): 76% | viability at 72 h, 1.235 µM ([24]; % cell viability, BHK-21, 1.235 µM, 72 h): 90% | viability at 72 h, 3.704 µM ([24]; % cell viability, BHK-21, 3.704 µM, 72 h): 90% | viability at 72 h, 33.333 µM ([24]; % cell viability, BHK-21, 33.333 µM, 72 h): 91% | viability at 72 h, 100 µM ([24]; % cell viability, BHK-21, 100 µM, 72 h): 85% | increase of oral F compared to GS-441524 ([25]; rats and cynomolgus macaques, ref Mackman et al 2021): greater than 5 fold | oral bioavailability (in words) ([25]; two relevant animal species including non-human primates): high oral bioavailability
